Assays:
Assay in all cases: biochemical
MST1 = target: T1, MST1 (Homo sapiens, UniProt Q13043)
T1 sequence (Q13043 1-487): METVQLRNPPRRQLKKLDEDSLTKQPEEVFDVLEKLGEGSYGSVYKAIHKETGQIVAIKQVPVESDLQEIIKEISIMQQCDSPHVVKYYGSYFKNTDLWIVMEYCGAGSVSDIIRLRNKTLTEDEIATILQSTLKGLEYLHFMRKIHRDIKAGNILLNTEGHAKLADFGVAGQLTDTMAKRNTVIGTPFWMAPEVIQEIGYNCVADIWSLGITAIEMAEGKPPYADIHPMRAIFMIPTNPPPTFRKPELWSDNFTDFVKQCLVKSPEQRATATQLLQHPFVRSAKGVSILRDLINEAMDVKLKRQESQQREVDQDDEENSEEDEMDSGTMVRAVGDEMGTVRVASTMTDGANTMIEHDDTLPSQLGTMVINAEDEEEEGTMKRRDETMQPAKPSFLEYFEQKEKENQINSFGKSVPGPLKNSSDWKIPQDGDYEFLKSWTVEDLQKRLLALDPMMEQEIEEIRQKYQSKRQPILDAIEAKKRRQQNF

MST2 = target: T2, MST2 (Homo sapiens, UniProt Q13188); details: 10 µM; binder
T2 sequence (Q13188 1-491): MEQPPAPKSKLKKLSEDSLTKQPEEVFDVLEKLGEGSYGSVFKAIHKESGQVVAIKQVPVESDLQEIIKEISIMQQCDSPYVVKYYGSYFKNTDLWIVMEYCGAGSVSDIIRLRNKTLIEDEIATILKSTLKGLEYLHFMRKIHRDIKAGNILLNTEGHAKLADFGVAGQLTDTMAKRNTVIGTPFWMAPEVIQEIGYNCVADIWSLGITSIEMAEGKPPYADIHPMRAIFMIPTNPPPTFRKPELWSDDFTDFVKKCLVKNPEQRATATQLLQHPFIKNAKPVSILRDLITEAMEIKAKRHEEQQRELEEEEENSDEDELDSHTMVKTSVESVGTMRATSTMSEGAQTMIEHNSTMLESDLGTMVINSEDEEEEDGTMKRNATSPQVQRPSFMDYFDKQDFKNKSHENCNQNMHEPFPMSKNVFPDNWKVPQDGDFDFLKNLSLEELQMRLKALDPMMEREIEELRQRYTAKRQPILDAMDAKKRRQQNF

MST4 = MST4 (Homo sapiens, UniProt Q9P289); details: 10 µM; binder
MST4, sequence (Q9P289 whole entry): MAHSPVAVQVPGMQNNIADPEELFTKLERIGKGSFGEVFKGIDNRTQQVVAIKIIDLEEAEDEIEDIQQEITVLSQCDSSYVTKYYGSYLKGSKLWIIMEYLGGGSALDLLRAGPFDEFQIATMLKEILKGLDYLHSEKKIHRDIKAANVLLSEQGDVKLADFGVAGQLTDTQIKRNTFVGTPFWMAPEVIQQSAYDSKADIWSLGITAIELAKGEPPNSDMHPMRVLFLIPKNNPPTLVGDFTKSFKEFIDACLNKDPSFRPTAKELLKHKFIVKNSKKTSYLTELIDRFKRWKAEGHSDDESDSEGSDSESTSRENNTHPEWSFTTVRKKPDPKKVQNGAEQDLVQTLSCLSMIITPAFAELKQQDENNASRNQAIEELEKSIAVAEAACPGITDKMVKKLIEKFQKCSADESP

SMILES	ΔTm at 10 µM (MST1; read-out: dTm MST1)	dTm MST1 (MST1; 10 µM, binder)	dTm MST2 (MST2)	dTm MST4 (MST4)
CN[C@@H]1C[C@H]2O[C@@](C)([C@@H]1OC)n1c3ccccc3c3c4c(c5c6ccccc6n2c5c31)C(=O)NC4 [Staurosporine]	13.9 °C			
CNc1ncc2cc(-c3ccc(-c4ncccc4F)cc3Cl)c(=O)n(C[C@H]3OC[C@H](N)CO3)c2n1 [compound 1, MRIA9]		1.8 °C	2.5 °C	2.7 °C
